Source: PubChem BioAssay (NCI)
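In this assay, cells in 96-well plates receive the compound at five concentrations for 48 hours. Endpoints are linearly interpolated between the surrounding concentrations. Abbreviation: GI50, concentration required for 50% inhibition of growth. Definition used: TGI = concentration required for complete inhibition of growth.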

What was measured:
Assay in all cases: inhibition of tumour cell growth, NCI panel, 48 h
K-562 leukemia = system: K-562 leukemia
SK-MEL-28 melanoma = system: SK-MEL-28 melanoma
CAKI-1 renal = system: CAKI-1 renal
T-47D breast = system: T-47D breast
NCI-H460 lung = system: NCI-H460 lung
SF-295 CNS = system: SF-295 CNS
UACC-257 melanoma = system: UACC-257 melanoma
HT29 colon = system: HT29 colon
OVCAR-8 ovarian = system: OVCAR-8 ovarian
U251 CNS = system: U251 CNS
NCI-H226 lung = system: NCI-H226 lung
NCI-H23 lung = system: NCI-H23 lung
HCT-15 colon = system: HCT-15 colon
SF-268 CNS = system: SF-268 CNS
HOP-62 NSCLC = system: HOP-62 NSCLC
M14 melanoma = system: M14 melanoma
SK-MEL-2 melanoma = system: SK-MEL-2 melanoma
MCF7 breast = system: MCF7 breast
786-0 renal = system: 786-0 renal
UO-31 renal = system: UO-31 renal
HL-60(TB) leukemia = system: HL-60(TB) leukemia
MDA-MB-435 = system: MDA-MB-435
MDA-MB-231 breast = system: MDA-MB-231 breast
SR leukemia = system: SR leukemia
HS 578T breast = system: HS 578T breast
SK-MEL-5 melanoma = system: SK-MEL-5 melanoma
MOLT-4 leukemia = system: MOLT-4 leukemia
CCRF-CEM leukemia = system: CCRF-CEM leukemia
NCI/ADR-RES ovarian = system: NCI/ADR-RES ovarian
SF-539 CNS = system: SF-539 CNS
NCI-H522 lung = system: NCI-H522 lung
A498 renal = system: A498 renal
HCC-2998 colon = system: HCC-2998 colon
ACHN renal = system: ACHN renal
SNB-75 CNS = system: SNB-75 CNS
OVCAR-4 ovarian = system: OVCAR-4 ovarian
MALME-3M melanoma = system: MALME-3M melanoma
COLO 205 colon = system: COLO 205 colon
KM12 colon = system: KM12 colon
LOX IMVI melanoma = system: LOX IMVI melanoma
SNB-19 CNS = system: SNB-19 CNS
UACC-62 melanoma = system: UACC-62 melanoma
OVCAR-5 ovarian = system: OVCAR-5 ovarian
SK-OV-3 ovarian = system: SK-OV-3 ovarian
OVCAR-3 ovarian = system: OVCAR-3 ovarian
EKVX NSCLC = system: EKVX NSCLC
RXF 393 renal = system: RXF 393 renal
BT-549 breast = system: BT-549 breast
TK-10 renal = system: TK-10 renal
PC-3 prostate = system: PC-3 prostate
RPMI-8226 leukemia = system: RPMI-8226 leukemia
SN12C renal = system: SN12C renal
HCT-116 colon = system: HCT-116 colon
IGROV1 ovarian = system: IGROV1 ovarian
DU-145 prostate = system: DU-145 prostate
SW-620 colon = system: SW-620 colon
A549 NSCLC = system: A549 NSCLC

Compound: CCOCC1(COCC)CCC(c2[nH]ncc2CN(C)CCNC)CC1
- GI50 (K-562 leukemia): 28.8 µM
- TGI (K-562 leukemia): > 100 µM
- GI50 (SK-MEL-28 melanoma): > 100 µM
- TGI (SK-MEL-28 melanoma): > 100 µM
- GI50 (CAKI-1 renal): > 100 µM
- TGI (CAKI-1 renal): > 100 µM
- GI50 (T-47D breast): > 100 µM
- TGI (T-47D breast): > 100 µM
- GI50 (NCI-H460 lung): > 100 µM
- TGI (NCI-H460 lung): > 100 µM
- GI50 (SF-295 CNS): > 100 µM
- TGI (SF-295 CNS): > 100 µM
- GI50 (UACC-257 melanoma): > 100 µM
- TGI (UACC-257 melanoma): > 100 µM
- GI50 (HT29 colon): 33.3 µM
- TGI (HT29 colon): > 100 µM
- GI50 (OVCAR-8 ovarian): > 100 µM
- TGI (OVCAR-8 ovarian): > 100 µM
- GI50 (U251 CNS): > 100 µM
- TGI (U251 CNS): > 100 µM
- GI50 (NCI-H226 lung): > 100 µM
- TGI (NCI-H226 lung): > 100 µM
- GI50 (NCI-H23 lung): > 100 µM
- TGI (NCI-H23 lung): > 100 µM
- GI50 (HCT-15 colon): > 100 µM
- TGI (HCT-15 colon): > 100 µM
- GI50 (SF-268 CNS): > 100 µM
- TGI (SF-268 CNS): > 100 µM
- GI50 (HOP-62 NSCLC): > 100 µM
- TGI (HOP-62 NSCLC): > 100 µM
- GI50 (M14 melanoma): > 100 µM
- TGI (M14 melanoma): > 100 µM
- GI50 (SK-MEL-2 melanoma): > 100 µM
- TGI (SK-MEL-2 melanoma): > 100 µM
- GI50 (MCF7 breast): > 100 µM
- TGI (MCF7 breast): > 100 µM
- GI50 (786-0 renal): > 100 µM
- TGI (786-0 renal): > 100 µM
- GI50 (UO-31 renal): > 100 µM
- TGI (UO-31 renal): > 100 µM
- GI50 (HL-60(TB) leukemia): > 100 µM
- TGI (HL-60(TB) leukemia): > 100 µM
- GI50 (MDA-MB-435): > 100 µM
- TGI (MDA-MB-435): > 100 µM
- GI50 (MDA-MB-231 breast): > 100 µM
- TGI (MDA-MB-231 breast): > 100 µM
- GI50 (SR leukemia): 23.7 µM
- TGI (SR leukemia): > 100 µM
- GI50 (HS 578T breast): > 100 µM
- TGI (HS 578T breast): > 100 µM
- GI50 (SK-MEL-5 melanoma): > 100 µM
- TGI (SK-MEL-5 melanoma): > 100 µM
- GI50 (MOLT-4 leukemia): > 100 µM
- TGI (MOLT-4 leukemia): > 100 µM
- GI50 (CCRF-CEM leukemia): > 100 µM
- TGI (CCRF-CEM leukemia): > 100 µM
- GI50 (NCI/ADR-RES ovarian): > 100 µM
- TGI (NCI/ADR-RES ovarian): > 100 µM
- GI50 (SF-539 CNS): > 100 µM
- TGI (SF-539 CNS): > 100 µM
- GI50 (NCI-H522 lung): > 100 µM
- TGI (NCI-H522 lung): > 100 µM
- GI50 (A498 renal): 8.25 µM
- TGI (A498 renal): > 100 µM
- GI50 (HCC-2998 colon): > 100 µM
- TGI (HCC-2998 colon): > 100 µM
- GI50 (ACHN renal): > 100 µM
- TGI (ACHN renal): > 100 µM
- GI50 (SNB-75 CNS): 41.4 µM
- TGI (SNB-75 CNS): > 100 µM
- GI50 (OVCAR-4 ovarian): > 100 µM
- TGI (OVCAR-4 ovarian): > 100 µM
- GI50 (MALME-3M melanoma): > 100 µM
- TGI (MALME-3M melanoma): > 100 µM
- GI50 (COLO 205 colon): > 100 µM
- TGI (COLO 205 colon): > 100 µM
- GI50 (KM12 colon): > 100 µM
- TGI (KM12 colon): > 100 µM
- GI50 (LOX IMVI melanoma): > 100 µM
- TGI (LOX IMVI melanoma): > 100 µM
- GI50 (SNB-19 CNS): > 100 µM
- TGI (SNB-19 CNS): > 100 µM
- GI50 (UACC-62 melanoma): > 100 µM
- TGI (UACC-62 melanoma): > 100 µM
- GI50 (OVCAR-5 ovarian): > 100 µM
- TGI (OVCAR-5 ovarian): > 100 µM
- GI50 (SK-OV-3 ovarian): > 100 µM
- TGI (SK-OV-3 ovarian): > 100 µM
- GI50 (OVCAR-3 ovarian): > 100 µM
- TGI (OVCAR-3 ovarian): > 100 µM
- GI50 (EKVX NSCLC): > 100 µM
- TGI (EKVX NSCLC): > 100 µM
- GI50 (RXF 393 renal): 65.2 µM
- TGI (RXF 393 renal): > 100 µM
- GI50 (BT-549 breast): > 100 µM
- TGI (BT-549 breast): > 100 µM
- GI50 (TK-10 renal): > 100 µM
- TGI (TK-10 renal): > 100 µM
- GI50 (PC-3 prostate): 59.4 µM
- TGI (PC-3 prostate): > 100 µM
- GI50 (RPMI-8226 leukemia): 19.8 µM
- TGI (RPMI-8226 leukemia): > 100 µM
- GI50 (SN12C renal): > 100 µM
- TGI (SN12C renal): > 100 µM
- GI50 (HCT-116 colon): > 100 µM
- TGI (HCT-116 colon): > 100 µM
- GI50 (IGROV1 ovarian): > 100 µM
- TGI (IGROV1 ovarian): > 100 µM
- GI50 (DU-145 prostate): > 100 µM
- TGI (DU-145 prostate): > 100 µM
- GI50 (SW-620 colon): > 100 µM
- TGI (SW-620 colon): > 100 µM
- GI50 (A549 NSCLC): > 100 µM
- TGI (A549 NSCLC): > 100 µM
